Eight molecules from ChEMBL document CHEMBL1132666, “Significant compensatory role of position Y-2 conferring high affinity to non-phosphorylated inhibitors of Grb2-SH2 domain” (Bioorg Med Chem Lett, 1999) can be followed below.

One may read the IC50 as the concentration needed to halve the response being measured. A lower IC50 goes with greater potency in that assay.

The target of the test is Growth factor receptor-bound protein 2 (Homo sapiens, UniProt P62993). Description: Inhibitory activity against Growth factor receptor bound protein 2.
Chain of Growth factor receptor-bound protein 2 (P62993 whole entry): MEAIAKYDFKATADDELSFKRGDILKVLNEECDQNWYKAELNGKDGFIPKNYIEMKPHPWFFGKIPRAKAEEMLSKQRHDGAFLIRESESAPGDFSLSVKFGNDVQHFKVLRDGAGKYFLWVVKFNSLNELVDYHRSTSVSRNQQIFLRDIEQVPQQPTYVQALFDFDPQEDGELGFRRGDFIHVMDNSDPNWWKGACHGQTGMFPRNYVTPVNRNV
On to `CSCC[C@H]1NC(=O)CNC(=O)[C@@H](C(C)C)NC(=O)[C@@H](CC(N)=O)NC(=O)[C@@H](CCC(=O)O)NC(=O)[C@@H](Cc2ccc(O)cc2)NC(=O)[C@@H](CC(C)C)NC(=O)[C@@H](CCC(=O)O)NC(=O)CSC[C@H](C(N)=O)NC(=O)[C@@H](Cc2ccc(O)cc2)NC1=O`, for which the IC50 stood at 20 µM.
In turn, `CSCC[C@H]1NC(=O)CNC(=O)[C@@H](C(C)C)NC(=O)[C@@H](CC(N)=O)NC(=O)[C@@H](CCC(=O)O)NC(=O)[C@@H](Cc2ccc(O)cc2)NC(=O)[C@@H](CC(C)C)NC(=O)[C@@H](C)NC(=O)CSC[C@H](C(N)=O)NC(=O)[C@@H](Cc2ccc(O)cc2)NC1=O` had an IC50 of 100 µM.
Molecule `CSCC[C@H]1NC(=O)CNC(=O)[C@@H](C(C)C)NC(=O)[C@@H](CC(N)=O)NC(=O)[C@@H](CCC(=O)O)NC(=O)[C@@H](Cc2ccc(O)cc2)NC(=O)[C@@H](CC(C)C)NC(=O)[C@@H](C)NC(=O)CSC[C@H](C(N)=O)NC(=O)[C@@H](Cc2ccc(OP(=O)(O)O)cc2)NC1=O` had an IC50 of 0.023 µM.
In the case of `CSCC[C@H]1NC(=O)CNC(=O)[C@@H](C(C)C)NC(=O)[C@@H](CC(N)=O)NC(=O)[C@@H](CCC(=O)O)NC(=O)[C@@H](Cc2ccc(O)cc2)NC(=O)[C@@H](CC(C)C)NC(=O)[C@@H](CCC(=O)O)NC(=O)CSC[C@H](C(N)=O)NC(=O)[C@@H](Cc2ccc(OP(=O)(O)O)cc2)NC1=O` it was 0.13 µM; in that of `CSCC[C@H]1NC(=O)CNC(=O)[C@@H](C(C)C)NC(=O)[C@@H](CC(N)=O)NC(=O)[C@@H](CCC(=O)O)NC(=O)[C@@H](Cc2ccc(O)cc2)NC(=O)[C@@H](CC(C)C)NC(=O)[C@@H](CC(C(=O)O)C(=O)O)NC(=O)CSC[C@H](C(N)=O)NC(=O)[C@@H](Cc2ccc(O)cc2)NC1=O`, 0.64 µM; in that of `CSCC[C@H]1NC(=O)CNC(=O)[C@@H](C(C)C)NC(=O)[C@@H](CC(N)=O)NC(=O)[C@@H](CCC(=O)O)NC(=O)[C@@H](Cc2ccc(O)cc2)NC(=O)[C@@H](CC(C)C)NC(=O)[C@@H](CCCC(=O)O)NC(=O)CSC[C@H](C(N)=O)NC(=O)[C@@H](Cc2ccc(O)cc2)NC1=O`, 3.45 µM.
In the case of `CSCC[C@H]1NC(=O)CNC(=O)[C@@H](C(C)C)NC(=O)[C@@H](CC(N)=O)NC(=O)[C@@H](CCC(=O)O)NC(=O)[C@@H](Cc2ccc(O)cc2)NC(=O)[C@@H](CC(C)C)NC(=O)[C@@H](Cc2ccc(OP(=O)(O)O)cc2)NC(=O)CSC[C@H](C(N)=O)NC(=O)[C@@H](Cc2ccc(O)cc2)NC1=O` it was 27.5 µM; in that of `CSCC[C@H]1NC(=O)CNC(=O)[C@@H](C(C)C)NC(=O)[C@@H](CC(N)=O)NC(=O)[C@@H](CCC(=O)O)NC(=O)[C@@H](Cc2ccc(O)cc2)NC(=O)[C@@H](CC(C)C)NC(=O)[C@@H](Cc2ccc(OC(C(=O)O)C(=O)O)cc2)NC(=O)CSC[C@H](C(N)=O)NC(=O)[C@@H](Cc2ccc(O)cc2)NC1=O`, 64.5 µM.
